Laboratory results taken from PubChem BioAssay (NCI).
“And” between values parts separate entries of the source, which are not always exact repeats. Equal entries are not always repeated.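 Grown in 96-well plates, cells were treated for 48 hours with each compound at five concentrations. Insufficient inhibition: endpoint recorded as highest concentration tested. GI50 marks 50% less growth. TGI is the concentration that stops growth completely.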

Experiments:
Assay in all cases: NCI anticancer screen, dose series, 48 h
HOP-62 NSCLC = system: HOP-62 NSCLC
SW-620 colon = system: SW-620 colon
OVCAR-5 ovarian = system: OVCAR-5 ovarian
HS 578T breast = system: HS 578T breast
HCC-2998 colon = system: HCC-2998 colon
UO-31 renal = system: UO-31 renal
UACC-62 melanoma = system: UACC-62 melanoma
EKVX NSCLC = system: EKVX NSCLC
NCI-H460 lung = system: NCI-H460 lung
OVCAR-8 ovarian = system: OVCAR-8 ovarian

SMILES | GI50 (HOP-62 NSCLC) [µM] | TGI (HOP-62 NSCLC) | GI50 (SW-620 colon) | TGI (SW-620 colon) [µM] | GI50 (OVCAR-5 ovarian) [µM] | TGI (OVCAR-5 ovarian) [µM] | GI50 (HS 578T breast) [µM] | TGI (HS 578T breast) [µM] | GI50 (HCC-2998 colon) [µM] | TGI (HCC-2998 colon) | GI50 (UO-31 renal) | TGI (UO-31 renal) | GI50 (UACC-62 melanoma) | TGI (UACC-62 melanoma) | GI50 (EKVX NSCLC) [µM] | TGI (EKVX NSCLC) | GI50 (NCI-H460 lung) | TGI (NCI-H460 lung) | GI50 (OVCAR-8 ovarian) | TGI (OVCAR-8 ovarian)
CN(C)CCCNC(=O)c1cc(NC(=O)CCNS(=O)(=O)c2ccc3c(c2)C(=O)c2ccccc2C3=O)cn1C | > 100 | > 100 µM | > 100 µM | > 100 | > 100 | > 100 | > 100 | > 100 | > 100 | > 100 µM | > 100 µM | > 100 µM | > 100 µM | > 100 µM | > 100 | > 100 µM | > 100 µM | > 100 µM | > 100 µM | > 100 µM
N=C(N)c1nn(C2OC(CO)C(O)C2O)c2nc[nH]c(=O)c12 (stereo not given) | 0.3 | 1.14 µM | 0.53 µM | 3.28 | 2.85 | 14.2 | 0.376 | 2.27 | 0.849 | 3.37 µM | 0.332 µM | 2.62 µM | 0.431 µM | 1.63 µM | 0.493 | 3.95 µM | 0.487 µM | 9.09 µM | 0.435 µM | 7.22 µM
CC1Oc2cc3c(-c4c(O)cc(O)c5c(O)c6c(cc45)OC(C)C(C)C6=O)c(O)cc(O)c3c(O)c2C(=O)C1C (stereo not given) | – | 1.23 µM | – | 1.52 | – | 6.32 | – | 0.459 | – | 1.63 µM | – | 1.54 µM | – | 1.34 µM | – | 0.711 µM | – | 0.163 µM | – | 1.4 µM
C=C(C)[C@@H]1CC[C@]2(C(=O)NCCCN)CC[C@]3(C)[C@H](CC[C@@H]4[C@@]5(C)CC[C@H](O)C(C)(C)[C@@H]5CC[C@]43C)[C@@H]12 | 18.3 | 88.4 µM | 22.5 µM | > 100 | 14.8 | 31.3 | 40.5 | > 100 | 21.4 | 77.1 µM | 38.9 µM | > 100 µM | 27.4 µM | 93.2 µM | 23.3 | 76.1 µM | 14 µM | > 100 µM | 27.7 µM | 87.7 µM
CCc1ccc(NCc2cc(OC)c(OC)c(OC)c2)cc1 | – | 52.4 µM and 35.5 µM | 0.0871 µM and 0.0541 µM | > 100 | 4.09 | > 76.1 | – | > 100 | – | 11 µM and 12.1 µM | 1.37 µM and 3.95 µM | 55.8 µM and 62.6 µM | 0.22 µM and 0.105 µM | 83.1 µM and > 85.3 µM | – | > 96.1 µM and 84.3 µM | 0.268 µM and 0.127 µM | 25.1 µM and 17 µM | 0.687 µM and 1.45 µM | 43.6 µM and 48.1 µM
COc1cc2c(cc1OC)-c1ccc3cc4c(cc3c1N(CCN1CCCC1)C2)OCO4 | 0.376 | 1.93 µM | 0.472 µM | 2.28 | 1.34 | 4.9 | 1.53 | 14.7 | 1.09 | 2.43 µM | 1.51 µM | 4.09 µM | 1.07 µM | 3 µM | 0.953 | 7.31 µM | 0.289 µM | 1.17 µM | 0.404 µM | 2.06 µM
c1ccc2[nH]c(-c3ccc(N4CCN(c5ccc(-c6nc7ccccc7[nH]6)cc5)CC4)cc3)nc2c1 | 11.4 | 75.7 µM | 58 µM | > 100 | 52 | > 100 | > 100 | > 100 | > 100 | > 100 µM | > 100 µM | > 100 µM | 83 µM | > 100 µM | 25.7 | > 100 µM | > 100 µM | > 100 µM | > 100 µM | > 100 µM
CCc1ccc(NC(=O)Nc2c[nH]c3ccccc23)cc1 | 16.7 | > 58.8 µM | > 38.3 µM | > 55 | 34 | > 57.9 | 10.4 | > 67.8 | 18 | > 50.8 µM | 1.62 µM | > 58 µM | 31.5 µM | > 51.7 µM | 9.2 | > 55 µM | 12.7 µM | > 49.6 µM | 13.9 µM | > 47.5 µM
CCN(CC)CCOc1ccc(C(=C(C)c2ccc(Cl)cc2)c2ccc(OCCN(CC)CC)cc2)cc1 | 0.995 | 2.91 µM | 0.556 µM | 1.1 | 0.664 | 1.57 | 0.71 | 1.85 | 0.574 | 1.06 µM | 0.503 µM | 0.969 µM | 0.61 µM | 1.18 µM | 0.989 | 3.5 µM | 0.63 µM | 1.18 µM | 0.731 µM | 1.77 µM
CCc1c(C)[nH]c(/C=C2\N=C(c3ccc[nH]3)C=C2OC)c1C | 0.25 | 4.04 µM | – | 6.56 | 0.413 | 7.3 | 0.164 | 2.3 | 0.451 | 4.65 µM | 0.176 µM | 0.591 µM | 0.341 µM | 1.59 µM | 0.707 | 9.93 µM | 0.094 µM | 10.8 µM | 0.232 µM | > 24.1 µM
